Reference: patent US7786042B2, “Fluridone as an anti-inflammatory agent” (Universita' Degli Studi Di Genova, priority 2005, dated 2010)
“Also recorded” adds a separate entry of the source. Read-outs that look alike come from different tables or passages of the source.

Legend:
Assay type in all cases: cell-based
[1] = system: human monocytes; assay: MCP-1 release from human monocytes
Procedure: Human monocytes were incubated for 6 hours with 10 μM ABA or with 100 ng/ml of lipopolysaccharide (LPS), in the presence or in the absence of fluridone (50 μM) and the MCP-1 concentration in the cell supernatant was immunoenzimatically measured, with a commercially available kit (R&D System, CA, USA). The results are the mean ±SD from 3 experiments.

[2] = system: murine macrophages RAW 264.7; assay: PGE2 production by murine macrophages RAW 264.7
Procedure: (§1) Murine macrophages of the continuous cell line RAW 264.7 were pre-incubated with 50 μM fluridone (flu) for 2 hours and then stimulated with 10 μM ABA or with 100 ng/ml of lipopolysaccharide (LPS) for 6 hours. The concentration of PGE2 (panel A) or of TNF-α (panel B) in the cell supernatant was measured as described under Materials and Methods and was compared with that from untreated (control) cells. The results are the mean ±SD from 4 experiments.
(§2) The method used to assay TNF-α is based on the high sensitivity of the murine fibroblast cell line L929 to the toxic effect of this cytokine. Briefly, fibroblasts were seeded (3×10^4/well) in 96-well plates and after 24 h the medium was substituted with the supernatant of the cell cultures where the TNF-α content was to be estimated. In parallel, known amounts of the cytokine were added to other wells, in order to obtain a standard curve of toxicity. After 48 hours, MTT (0.05 mg/ml) was added to each well and after 3 hours incubation at 37° C. (during this time viable cells reduce the dye producing formazan crystals), the medium was removed, DMSO (200 μl/well) was added to dissolve the formazan crystals and the absorbance was recorded at 570 nm with a spectrophotometric plate reader. The TNF-α concentration in the culture supernatants was calculated by comparison of the percentage of viable cells in the treated wells with those containing known amounts of TNF-α (standard curve). The PGE2 release in the medium by stimulated inflammatory cells was measured by an immunoenzymatic assay kit, commercially available (PGE2 EIA-kit, Cayman Chemicals, Ann Arbor, Mich., USA).

[3] = system: murine macrophages RAW 264.7; assay: TNF-α production by murine macrophages RAW 264.7
Procedure: as §1, §2

[4] = system: human lymphocytes; assay: Lymphocyte proliferation ([3H]-thymidine incorporation); conditions: for inhibition at 50 µM: Homo sapiens, Lymphocyte, pre-incubation with fluridone 50 μM
Procedure: Low density mononuclear cells (lymphocytes and monocytes), isolated from peripheral blood, were incubated in triplicate (1.5×10^5/well) in 96-well plates in RPMI containing 20% autologous plasma in the absence (control) or in the presence of 50 μM fluridone for 18 hours. Phytohemagglutinin (PHA) (0.1 μg/ml) or phorbol myristate acetate (PMA) (0.1 μg/ml) were then added, with or without the simultaneous addition of ABA. After 72 hours, [^3H]-Thymidine (Amersham Biosciences, Uppsala, Sweden) was added to the cultures (0.2 μCi/well) and after 6 hours the incorporated radioactivity was evaluated by filtration of the cells on glass fiber filters (Whatman, Maidenstone, UK). Results are the mean ±SD from 3 experiments. In the absence of stimuli (PHA or PMA), no lymphocyte proliferation was observed.
Blood enriched in leukocytes (buffy coat), was provided by Galliera Hospital, Genova, Italy, upon informed consent of the volunteer donors. Lymphocytes, granulocytes and monocytes were isolated by density centrifugation through Ficoll-Paque (Amersham Biosciences, Uppsala, Sweden). Low-density mononuclear cells (including lymphocytes and monocytes) were collected at the plasma-Ficoll interphase and monocytes were further purified by adherence to plastic cell culture flasks. Granulocytes were isolated from high-density cells, sedimented under the Ficoll layer by hypotonic lysis of contaminating erythrocytes. All cell populations were then resuspended in RPMI 1640 medium (Sigma) containing penicillin (100 U/ml), streptomycin (100 μg/ml) and 20% autologous plasma. Culture conditions were as those described below for cell lines.

[5] = system: murine microglia cell line N9; assay: TNF-α release by murine microglia N9
Procedure: Confluent cell cultures from the murine microglia cell line N9 were pre-incubated in the presence or in the absence of 50 μM fluridone for 4 hours and then stimulated with 10 μM ABA or with 100 ng/ml lipopolysaccharide for 24 hours. The concentration of PGE2 (panel A) and of TNF-α (panel B) in the cell supernatant was measured as described under Materials and Methods. The results are expressed as release relative to control cultures in the absence of added stimuli and are the mean ±SD from 4 experiments.
as §2

[6] = system: murine microglia cell line N9; assay: NO release by murine microglia N9
Procedure: The method used to determine NO released from the cells into the medium exploits the spontaneous conversion of NO to nitrates and the subsequent enzymatic reduction of nitrates to nitrites by the enzyme nitrate reductase. […] Granulocytes (60×10^6/well) or murine microglia cells N9 (2×10^5/well) were incubated in 24-well plates for 60 min at 37° C. in the presence of ABA at different concentrations. The supernatants were then centrifuged and diluted with an equal volume of Griess reagent (0.1% naphthyl-ethylenediamine dihydrochloride in distilled water, 1% sulphanylamide in 5% concentrated H3PO4). Absorbance at 545 nm was estimated after 10 min and the nitrite concentration was calculated using a standard curve, generated in parallel with known amounts of NaNO2.

[7] = system: human monocytes; assay: TNF-α release by human monocytes (L929 toxicity assay)
Procedure: as §1, with “Human monocytes were” for “Murine macrophages of the continuous cell line RAW 264.7 were”, “A) and” for “A) or”, “and” for “and was”, “that of” for “that from”, “untreated cells (control).” for “untreated (control) cells.”
as §2

[8] = system: human granulocytes; assay: NO release by granulocytes (nitrite, Griess)
Procedure: Granulocytes were resuspended at 5×10^6/ml in HBSS and 225 μl of the cell suspension were added to 50 μl of 0.2 mM cytochrome c and were incubated for 30 min at 37° C. in the absence (control) or in the presence of 250 nM or 20 μM ABA, the latter concentration without or with 1 mM EDTA, 20 mM nicotinamide or 0.1 mM 8-Br-cADPR. […] The results are expressed as the production relative to control cells, not stimulated with ABA, and are the mean ±SD from 5 experiments.

[9] = system: human monocytes; assay: PGE2 production / COX-2 expression in human monocytes
Procedure: as §1, with “Human monocytes were” for “Murine macrophages of the continuous cell line RAW 264.7 were”, “A) and” for “A) or”, “and” for “and was”, “that of” for “that from”, “untreated cells (control).” for “untreated (control) cells.”
as §2

[10] = system: human granulocytes and lymphocytes; assay: ABA content in stimulated human granulocytes and lymphocytes (immunoassay for ABA); conditions: fluridone 10-50 μM
Procedure: The increase of the intracellular ABA concentration induced by f-MLP in granulocytes and by PMA in lymphocytes is inhibited by the addition of fluridone at micromolar concentrations (ranging between 10 and 50 μM) during cell incubation with the pro-inflammatory stimuli.

[11] = exogenous ABA 10-20 μM added to fluridone-treated cultures

CC1=CC(=O)CC(C)(C)[C@@]1(O)/C=C/C(C)=C\C(=O)O (racemic) [ABA, (±)-cis, trans ABA]
increase of release of MCP-1 ([1]; ABA 0.1-10 μM): approx. two-fold | Effects of ABA: MCP-1 release ([1]; Added ABA 5-50 μM): ↑MCP-1 release | release of PGE2 (COX-PGE2) ([2]; ABA 0.1-10 μM): increased release; also recorded: ↑COX-PGE2 | release of TNF-α ([3]; ABA 0.1-10 μM): increased release; also recorded: ↑TNF-α release | TNF-α release compromised by fluridone [3, 11]: partly restores | stimulation of proliferation ([4]; ABA 50 to 500 μM, in the absence of other stimuli (PMA, PHA)): 30% | Effects of ABA: proliferation ([4]; Added ABA 50-500 μM): ↑proliferation | restoration of the proliferative response ([4]; excess exogenous ABA 500 μM together with fluridone): approximately 40% | release of TNF-α ([5]; ABA 0.2-20 μM): increase; also recorded: ↑TNF-α release | TNF-α release compromised by fluridone [5, 11]: partly restores | release of NO ([6]; ABA 0.2-20 μM): increase; also recorded: ↑NO release | NO release compromised by fluridone [6, 11]: partly restores | release of TNF-α ([7]; ABA 0.1-10 μM): significant increase | Effects of ABA: TNF-α release ([7]; Added ABA 5-50 μM): ↑TNF-α release | TNF-α release compromised by fluridone [7, 11]: partly restores | production/release of nitric oxide (NO) ([8]; ABA 0.2-20 μM): stimulation; also recorded: ↑NO release | expression of cyclooxygenase 2 (COX-2), Western blot ([9]; ABA 0.1-10 μM): increased expression | production of prostaglandin E2 (PGE2) ([9]; ABA 0.1-10 μM): increased production | Effects of ABA: COX-PGE2 ([9]; Added ABA 5-50 μM): ↑COX-PGE2

Cn1cc(-c2ccccc2)c(=O)c(-c2cccc(C(F)(F)F)c2)c1 [Fluridone, 1-methyl-3-phenyl-5-(α,α,α-trifluoro-m-tolyl)-4-pyridone]
Effects of Fluridone: MCP-1 release [1]: ↓MCP-1 release | release of MCP-1 by LPS-stimulated monocytes ([1]; fluridone 50 μM): almost completely inhibits | Effects of Fluridone: COX-PGE2 [2]: ↓COX-PGE2 | LPS-stimulated PGE2 production ([2]; fluridone 50 μM): completely inhibits | Effects of Fluridone: TNF-α release [3]: ↓TNF-α release | inhibition at 50 µM ([3]; Mus musculus, RAW264.7, fluridone 50 μM, read-out: inhibition of LPS-induced TNF-α production): 90% | Effects of Fluridone: PMA-, LPS-, PHA-induced proliferation [4]: ↓PMA-, LPS-, | inhibition at 50 µM ([4]; read-out: inhibition of PHA-induced cell proliferation): 50% | inhibition at 50 µM ([4]; read-out: inhibition of PMA-induced cell proliferation): 90% | Effects of Fluridone: TNF-α release [5]: ↓TNF-α release | Effects of Fluridone: NO release [6]: ↓NO release | Effects of Fluridone: TNF-α release [7]: ↓TNF-α release | inhibition at 50 µM ([7]; Homo sapiens, Monocyte, fluridone 50 μM, read-out: inhibition of LPS-induced TNF-α production): 90% | Effects of Fluridone: fMLP-, ATP-, β-amyloid-induced NO release [8]: ↓fMLP-, ATP-, β- | inhibition at 50 µM ([8]; Homo sapiens, read-out: inhibition of NO release): ~80% | inhibition of the increase of intracellular ABA concentration ([10]; granulocytes, f-MLP-induced): 40% | inhibition of the increase of intracellular ABA concentration ([10]; lymphocytes, PMA-induced): 50% | Effects of Fluridone: COX-PGE2 [9]: ↓COX-PGE2 | LPS-stimulated PGE2 production ([9]; fluridone 50 μM): completely inhibits
